The NIST ThermoML archive (doi:10.1007/s10765-005-8591-6)

Assay: xn = mol fraction of the nth substance listed
Settings: Fluid (supercritical or subcritical phases), Constant-volume piezometry

FC(F)C(F)(F)F [pentafluoroethane] + FCF
Settings	mass density [kg/m3]
258.15 K, 2177 kPa, x2 = 0.3004	1342.88
258.16 K, 1554.4 kPa, x2 = 0.4995	1294.18
258.16 K, 4595.6 kPa, x2 = 0	1403.78
259.14 K, 2658.3 kPa, x2 = 0.6995	1234.39
259.15 K, 2403.7 kPa, x2 = 0.4995	1294.07
259.15 K, 2913.1 kPa, x2 = 0.3004	1342.77
261.15 K, 3061.1 kPa, x2 = 0.8997	1151.87
261.15 K, 4118.3 kPa, x2 = 0.4995	1293.85
261.15 K, 4474.9 kPa, x2 = 0.3004	1342.56
261.15 K, 4516.2 kPa, x2 = 0.6995	1234.17
261.15 K, 6579.8 kPa, x2 = 0	1403.47
262.14 K, 4056 kPa, x2 = 0.8997	1151.77
262.14 K, 7284.6 kPa, x2 = 0	1403.36
263.15 K, 5058.3 kPa, x2 = 0.8997	1151.67
263.15 K, 5848.5 kPa, x2 = 0.4995	1293.64
263.15 K, 6106.3 kPa, x2 = 0.3004	1342.34
263.15 K, 6362.9 kPa, x2 = 0.6995	1233.97
264.15 K, 3235.2 kPa, x2 = 0.098	1362.36
264.15 K, 6053.5 kPa, x2 = 0.8997	1151.57
264.15 K, 7288.1 kPa, x2 = 0.6995	1233.88
265.15 K, 7050.9 kPa, x2 = 0.8997	1151.47
265.15 K, 7767 kPa, x2 = 0.3004	1342.13
265.15 K, 8213.6 kPa, x2 = 0.6995	1233.78
265.17 K, 7585.9 kPa, x2 = 0.4995	1293.43
267.15 K, 9040.9 kPa, x2 = 0.8997	1151.28
267.15 K, 9274.4 kPa, x2 = 0.4995	1293.23
267.15 K, 10051 kPa, x2 = 0.6995	1233.58
267.16 K, 5301.3 kPa, x2 = 0.098	1362.04
267.16 K, 9382.9 kPa, x2 = 0.3004	1341.92
267.16 K, 10809 kPa, x2 = 0	1402.84
268.15 K, 10032 kPa, x2 = 0.8997	1151.19
268.2 K, 10152 kPa, x2 = 0.4995	1293.13
269.14 K, 10950 kPa, x2 = 0.4995	1293.04
269.15 K, 10983 kPa, x2 = 0.3004	1341.71
269.15 K, 11894 kPa, x2 = 0.6995	1233.38
269.16 K, 11031 kPa, x2 = 0.8997	1151.09
270.15 K, 7414.4 kPa, x2 = 0.098	1361.73
270.19 K, 13003 kPa, x2 = 0	1402.53
271.13 K, 12647 kPa, x2 = 0.4995	1292.84
271.15 K, 13008 kPa, x2 = 0.8997	1150.92
271.16 K, 13740 kPa, x2 = 0.6995	1233.2
273.08 K, 14311 kPa, x2 = 0.4995	1292.65
273.15 K, 9532.7 kPa, x2 = 0.098	1361.42
273.15 K, 14255 kPa, x2 = 0.3004	1341.32
273.15 K, 14990 kPa, x2 = 0.8997	1150.74
273.15 K, 15076 kPa, x2 = 0	1402.23
273.16 K, 15579 kPa, x2 = 0.6995	1233.01
